ChEMBL document CHEMBL1201862, “PubChem BioAssay data set” (2004)
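All cell lines were grown in 96-well plates and treated with compound for 48 hours. The concentration for 50% growth inhibition is given as GI50.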 The source made the active and inactive calls. Rule as the data show it: active = GI50 up to about 1.1 µM and inactive = higher.

What was measured:
Assay in all cases: NCI anticancer screen, dose series, 48 h
[1] = test system: HCT-116
[2] = test system: CCRF-CEM
[3] = test system: HCC 2998
[4] = test system: HCT-15
[5] = test system: SF-539
[6] = test system: UACC-257
[7] = test system: CAKI-1
[8] = test system: SK-MEL-2
[9] = test system: K562
[10] = test system: COLO 205
[11] = test system: MDA-MB-231
[12] = test system: A549
[13] = test system: NCI-H23
[14] = test system: SR
[15] = test system: SNB-75
[16] = test system: HOP-62
[17] = test system: EKVX
[18] = test system: HL-60
[19] = test system: HT-29
[20] = test system: OVCAR-4

SMILES | GI50 [1] | GI50 [2] | GI50 [3] | GI50 [4] [µM] | GI50 [5] | GI50 [6] | GI50 [7] | GI50 [8] | GI50 [9] | GI50 [10] | GI50 [11] | GI50 [12] | GI50 [13] | GI50 [14] | GI50 [15] | GI50 [16] | GI50 [17] | GI50 [18] | GI50 [19] | GI50 [20]
Oc1ccccc1C(c1cc2c(cc1O)OCO2)N1CCOCC1 (centres undefined) | 17.7 µM (inactive) | 2.14 µM (inactive) | 18.7 µM (inactive) | 16.4 | 20.7 µM (inactive) | 19.2 µM (inactive) | 19.7 µM (inactive) | 17.8 µM (inactive) | 5.25 µM (inactive) | 18.7 µM (inactive) | 21 µM (inactive) | 23 µM (inactive) | 23.6 µM (inactive) | 8.07 µM (inactive) | 16.4 µM (inactive) | 38.8 µM (inactive) | 50.9 µM (inactive) | 2.24 µM (inactive) | 18.5 µM (inactive) | –
O=C1NC2c3c(I)sc(I)c3C(=O)C2O1 (centres undefined) | 2.58 µM (inactive) | 1.56 µM (inactive) | 3.95 µM (inactive) | 2.08 | 2.56 µM (inactive) | 4.97 µM (inactive) | 3.52 µM (inactive) | 10.4 µM (inactive) | 4.65 µM (inactive) | 2.67 µM (inactive) | 4.49 µM (inactive) | 14.1 µM (inactive) | 5.27 µM (inactive) | 2.96 µM (inactive) | 13.1 µM (inactive) | 14.1 µM (inactive) | 5.52 µM (inactive) | 1.09 µM (active) | 1.7 µM (inactive) | 9.35 µM (inactive)
C1=CC2=CC=CC3c4nc5ccc6ccccc6c5nc4C(=C1)C23 (centres undefined) | > 100 µM (inactive) | > 100 µM (inactive) | > 100 µM (inactive) | > 100 | > 100 µM (inactive) | > 100 µM (inactive) | > 100 µM (inactive) | > 100 µM (inactive) | > 100 µM (inactive) | > 100 µM (inactive) | > 100 µM (inactive) | > 100 µM (inactive) | > 100 µM (inactive) | > 100 µM (inactive) | > 100 µM (inactive) | > 100 µM (inactive) | > 100 µM (inactive) | > 100 µM (inactive) | > 100 µM (inactive) | > 100 µM (inactive)
COC1/C=C/C(C)C(OC)CC(O)/C=C/C(C)C(C(C)C(OC)C(C)CCC(=O)C(C)C(C/C=C/N(C)C=O)OC)OC(=O)/C=C/C=C(\C)CC(OC)CC2=CC(=O)O[C@@H](C(C)C(OC)C1)[C@H]2O (some centres undefined) | 0.0188 µM (active) | 0.621 µM (active) | 0.175 µM (active) | 0.0556 | 0.114 µM (active) | 0.11 µM (active) | 0.0332 µM (active) | – | 17.1 µM (inactive) | 0.0301 µM (active) | 0.0395 µM (active) | 0.119 µM (active) | 0.26 µM (active) | 0.0929 µM (active) | 0.0697 µM (active) | 0.0537 µM (active) | 0.386 µM (active) | 0.064 µM (active) | 0.0845 µM (active) | 0.12 µM (active)
CCOC(=O)/C(C(N)=O)=C(/O)c1cnccn1 | > 100 µM (inactive) | > 100 µM (inactive) | > 100 µM (inactive) | > 100 | > 100 µM (inactive) | > 100 µM (inactive) | > 100 µM (inactive) | > 100 µM (inactive) | > 100 µM (inactive) | > 100 µM (inactive) | > 100 µM (inactive) | > 100 µM (inactive) | > 100 µM (inactive) | > 100 µM (inactive) | > 100 µM (inactive) | – | > 100 µM (inactive) | > 100 µM (inactive) | > 100 µM (inactive) | > 100 µM (inactive)
N#CC(=C1CCN(CCCC(=O)c2ccc(F)cc2)CC1)c1ccccc1 | > 100 µM (inactive) | > 100 µM (inactive) | > 100 µM (inactive) | > 100 | > 100 µM (inactive) | > 100 µM (inactive) | > 100 µM (inactive) | > 100 µM (inactive) | > 100 µM (inactive) | > 100 µM (inactive) | > 100 µM (inactive) | > 100 µM (inactive) | > 100 µM (inactive) | > 100 µM (inactive) | > 100 µM (inactive) | – | > 100 µM (inactive) | > 100 µM (inactive) | 62.2 µM (inactive) | > 100 µM (inactive)
O=C1C=CC(=O)c2ccc(=O)ccc21 | 10.8 µM (inactive) | 0.802 µM (active) | 17.2 µM (inactive) | 17 | 21.8 µM (inactive) | 17.1 µM (inactive) | 9.25 µM (inactive) | 18.1 µM (inactive) | 2.4 µM (inactive) | 5.01 µM (inactive) | 20.5 µM (inactive) | 30.1 µM (inactive) | 19.1 µM (inactive) | 2.02 µM (inactive) | 19.9 µM (inactive) | 25.9 µM (inactive) | 22.4 µM (inactive) | 2.1 µM (inactive) | 18.4 µM (inactive) | 9.29 µM (inactive)
CCOc1ccccc1/N=N/C1C(=O)N(C(=O)CC(=O)Nc2ccccc2OC)N=C1C (centres undefined) | 40.9 µM (inactive) | > 100 µM (inactive) | > 100 µM (inactive) | 15.7 | 53.2 µM (inactive) | – | > 100 µM (inactive) | 55.7 µM (inactive) | – | > 100 µM (inactive) | 30.3 µM (inactive) | > 100 µM (inactive) | 80 µM (inactive) | > 10 µM (inactive) | 16.3 µM (inactive) | 18.7 µM (inactive) | 0.427 µM (active) | > 100 µM (inactive) | > 100 µM (inactive) | > 100 µM (inactive)
[O-][S+]1CC[S+]([O-])CC[S+]([O-])CC1 (centres undefined) | > 100 µM (inactive) | > 100 µM (inactive) | > 100 µM (inactive) | > 100 | > 100 µM (inactive) | > 100 µM (inactive) | – | – | > 100 µM (inactive) | > 100 µM (inactive) | > 100 µM (inactive) | > 100 µM (inactive) | > 100 µM (inactive) | > 100 µM (inactive) | > 100 µM (inactive) | > 100 µM (inactive) | > 100 µM (inactive) | > 100 µM (inactive) | > 100 µM (inactive) | > 100 µM (inactive)
COc1ccc(NC(=O)CSc2nc(C)nc3c2sc(=S)n3-c2ccccc2)cc1 | 8.28 µM (inactive) | > 10 µM (inactive) | > 10 µM (inactive) | > 10 | 2.43 µM (inactive) | > 10 µM (inactive) | 7.46 µM (inactive) | – | > 10 µM (inactive) | 7.28 µM (inactive) | > 10 µM (inactive) | > 10 µM (inactive) | > 10 µM (inactive) | > 10 µM (inactive) | 2.97 µM (inactive) | 5.27 µM (inactive) | 7.67 µM (inactive) | > 10 µM (inactive) | > 10 µM (inactive) | 3.18 µM (inactive)
CS(=O)(=O)Nc1ccc(NCc2c[nH]c3ccc4ncccc4c23)cc1 | 20.3 µM (inactive) | 18.8 µM (inactive) | – | 27.2 | 24.8 µM (inactive) | 23.1 µM (inactive) | 19.6 µM (inactive) | 17.1 µM (inactive) | 18.7 µM (inactive) | 18.6 µM (inactive) | 27.4 µM (inactive) | 43.4 µM (inactive) | 14.1 µM (inactive) | 13.3 µM (inactive) | 30.3 µM (inactive) | 36.5 µM (inactive) | 40.4 µM (inactive) | 22.3 µM (inactive) | 34.8 µM (inactive) | 25.9 µM (inactive)
CN(CCCCCl)P(=O)(OCc1ccc([N+](=O)[O-])o1)OCC1OC(n2ccc(N)nc2=O)C(O)C1O (centres undefined) | 3.68 µM (inactive) | – | 3.37 µM (inactive) | 41.4 | 10.1 µM (inactive) | 2.21 µM (inactive) | 55 µM (inactive) | 9.79 µM (inactive) | 2.99 µM (inactive) | 1.05 µM (active) | 18.9 µM (inactive) | 0.303 µM (active) | 5.79 µM (inactive) | 5.87 µM (inactive) | 0.571 µM (active) | 10.6 µM (inactive) | – | 4.15 µM (inactive) | 4.61 µM (inactive) | 1.05 µM (active)
O=C1CC(c2n[nH]c3ccccc23)C(=O)N1c1ccccc1 (centres undefined) | > 100 µM (inactive) | 29.2 µM (inactive) | > 100 µM (inactive) | > 100 | > 100 µM (inactive) | > 100 µM (inactive) | > 100 µM (inactive) | > 100 µM (inactive) | 43.9 µM (inactive) | > 93.8 µM (inactive) | > 100 µM (inactive) | > 100 µM (inactive) | > 100 µM (inactive) | 36.5 µM (inactive) | > 100 µM (inactive) | > 100 µM (inactive) | > 100 µM (inactive) | 25.6 µM (inactive) | > 100 µM (inactive) | > 100 µM (inactive)
N#C[BH2-][n+]1ccc(C(=O)NNCc2ccc(F)cc2)cc1 | > 100 µM (inactive) | > 100 µM (inactive) | > 100 µM (inactive) | > 100 | > 100 µM (inactive) | > 100 µM (inactive) | > 100 µM (inactive) | > 100 µM (inactive) | > 100 µM (inactive) | > 100 µM (inactive) | > 100 µM (inactive) | > 100 µM (inactive) | – | > 100 µM (inactive) | > 100 µM (inactive) | – | > 100 µM (inactive) | > 100 µM (inactive) | – | 64.1 µM (inactive)
C[C@H]1CCC2C(OC(=O)[C@@H]2CN(C)C)[C@]2(C)C(=O)C=CC12O (some centres undefined) | 2.86 µM (inactive) | 1.87 µM (inactive) | 5.2 µM (inactive) | – | 3.64 µM (inactive) | 4.86 µM (inactive) | 7.06 µM (inactive) | 9.44 µM (inactive) | 3.23 µM (inactive) | 4.74 µM (inactive) | 9.55 µM (inactive) | 24.8 µM (inactive) | 3.26 µM (inactive) | 2.47 µM (inactive) | 4.6 µM (inactive) | 23.9 µM (inactive) | 4.02 µM (inactive) | 1.65 µM (inactive) | 4.09 µM (inactive) | 5.62 µM (inactive)
